Results published in EPA's ToxValDB 9.5.
Several values for one entry are separate records, joined by “and”; a condition that tells them apart may be missing. Identical values can stand only once.

Tested on: Rattus norvegicus
Conditions: oral
[1] = chronic, duration: 6 months, drinking water, M/F, Sprague-Dawley, Morris water maze (escape time, acquisition, day 6)
[2] = chronic, duration: 6 months, drinking water, M, Wistar, open field (entries to neighboring grids, day 1) + Y-maze (correct responses, day 9)
[3] = chronic, duration: 6 months, drinking water, M, Wistar, open field (standing attempts, day 1) + open field (standing attempts, day 9) + open field (time in central grid, day 1) + Y-maze (correct …
[4] = developmental, drinking water, M/F, Wistar, generation: F1, F1: active avoidance (shuttle box, conditioned avoidance response, day 2)
[5] = developmental, drinking water, M/F, Wistar, generation: F1, F1: maze test (latency to complete, day 1) + F1: maze test (latency to complete, day 5) + F1: maze test (number entries into blind alleys, …
[6] = developmental, drinking water, M, Wistar, generation: F1, F1: elevated plus maze (open arm entries) + F1: elevated plus maze (time in open arms) + F1: open field (grooming events) + F1: open field (…

Q: What does the source list for `[F-].[Na+]` [Sodium fluoride]?
A: LOEL (chronic, duration: 5 months, drinking water, Sprague-Dawley, Y-maze (number of correct responses over 10 trainings after 24 hours) + Y-maze (number of training runs to meet learning standard 90%)): 9.8 mg/kg-day; LOEL (chronic, duration: 5 months, drinking water, Wistar, Y-maze (number of training runs to achieve 9 consecutive correct responses)): 6.91 mg/kg-day; NOEL (chronic, duration: 6 months, drinking water, M/F, Sprague-Dawley, Morris water maze (escape time, acquisition, day 1)): 3.28 mg/kg-day and 3.27 mg/kg-day; LOEL [1]: 3.27 mg/kg-day; NOEL [1]: 0.33 mg/kg-day; LOEL (chronic, duration: 6 months, drinking water, M/F, Sprague-Dawley, Morris water maze (escape time, acquisition, day 6) + Morris water maze (escape time, probe test, day 7)): 0.33 mg/kg-day; LOEL (chronic, duration: 6 months, drinking water, M/F, Sprague-Dawley, Morris water maze (escape time, acquisition, day 6) + Morris water maze (time in platform area, probe test, day 7) + Morris water maze (time…): 0.33 mg/kg-day; NOEL (chronic, duration: 6 months, drinking water, M/F, Sprague-Dawley, Morris water maze (platform crossing, probe test, day 7)): 3.27 mg/kg-day; LOEL (chronic, duration: 6 months, drinking water, M/F, Sprague-Dawley, Morris water maze (time in platform area, probe test, day 7)): 0.33 mg/kg-day; LOEL (chronic, duration: 6 months, drinking water, M, Wistar, Y-maze (time to meet learning standard 90%)): 3.34 mg/kg-day; LOEL [2]: 10 mg/kg-day; NOEL [2]: 6.67 mg/kg-day; NOEL (chronic, duration: 6 months, drinking water, M, Wistar, open field (entries to neighboring grids, day 9) + open field (time in central grid, day 9)): 10 mg/kg-day; LOEL [3]: 6.67 mg/kg-day; NOEL [3]: 3.34 mg/kg-day; LOEL (chronic, duration: 10 months, drinking water, M/F, Sprague-Dawley, Morris water maze (escape time, acquisition, average over days 1-6) + Morris water maze (platform crossing, probe test, day 7)): 2.16 mg/L urine; LOEL (chronic, duration: 14 weeks, drinking water, M, Wistar, sexual behavior (ejaculation frequency) + sexual behavior (ejaculation latency) + sexual behavior (intromission latency) + sexual behavior (…): 6.67 mg/kg-day; NOEL (chronic, duration: 115 days, drinking water, M, Wistar, open field (squares crossed)): 6.67 mg/kg-day; LOEL (chronic, duration: 115 days, drinking water, M, Wistar, plank walking (narrow, distance traveled) + plank walking (narrow, number of turns) + plank walking (wide, distance traveled) + plank …): 6.67 mg/kg-day; LOEL (developmental, diet, M/F, Sprague-Dawley, generation: F1, F1: Morris water maze (escape time, acquisition, day 6) + F1: Morris water maze (platform crossing, probe test, day 7) + F1: Morris water …): 8.52 mg/L urine; NOEL (developmental, drinking water, F, Wistar, generation: F1, F1: cliff avoidance + F1: ear opening + F1: negative geotaxis + F1: surface righting): 0.54 mg/kg-day; LOEL (developmental, drinking water, F, Wistar, generation: F1, F1: elevated plus maze (open arm entries) + F1: elevated plus maze (time in open arms) + F1: open field (grooming events) + F1: open field (…): 0.27 mg/kg-day; NOEL (developmental, drinking water, F, Wistar, generation: F1, F1: elevated plus maze (open arm entries) + F1: open field (defecation) + F1: open field (grooming events) + F1: open field (rearing events…): 0.54 mg/kg-day; LOEL (developmental, drinking water, F, Wistar, generation: F1, F1: elevated plus maze (time in open arms)): 0.27 mg/kg-day; LOEL (developmental, drinking water, F, Wistar, generation: F1, F1: eye opening): 0.27 mg/kg-day; NOEL (developmental, drinking water, F, Wistar, generation: F1, F1: open field (defecation) + F1: open field (rearing events, 15 min)): 0.54 mg/kg-day; LOEL (developmental, drinking water, M/F, Sprague-Dawley, generation: F1, F1: Morris water maze (distance traveled to reach platform, acquisition, day 4) + F1: Morris water maze (latency to reach platform, …): 1.63 mg/kg-day; LOEL (developmental, drinking water, M/F, Sprague-Dawley, generation: F1, F1: Morris water maze (escape time, acquisition, average over days 1-6) + F1: Morris water maze (platform crossing, probe test, day 7) + F1…): 3.27 mg/kg-day; NOEL (developmental, drinking water, M/F, Sprague-Dawley, generation: F1, F1: Morris water maze (swim speed to reach platform, acquisition, day 4)): 6.53 mg/kg-day; LOEL [4]: 4.35 mg/kg-day; NOEL [4]: 2.18 mg/kg-day; LOEL (developmental, drinking water, M/F, Wistar, generation: F1, F1: active avoidance (shuttle box, conditioned avoidance response, day 9) + F1: pain response (hot plate, latency period)): 2.18 mg/kg-day; LOEL (developmental, drinking water, M/F, Wistar, generation: F1, F1: elevated plus maze (open arm entries) + F1: elevated plus maze (time in open arms) + F1: mid-air righting (number of animals successful…): 9.05 mg/kg-day; LOEL [5]: 4.87 mg/kg-day; NOEL [5]: 2.33 mg/kg-day; LOEL (developmental, drinking water, M/F, Wistar, generation: F1, F1: open field (rearing events, day 1) + F1: open field (rearing events, day 3)): 2.33 mg/kg-day; NOEL (developmental, drinking water, M/F, Wistar, generation: F1, F1: open field (squares crossed, day 1) + F1: open field (squares crossed, day 3)): 4.87 mg/kg-day; LOEL (developmental, drinking water, M/F, Wistar, generation: F1, F1: passive avoidance (step-down test, number of shocks, session 2, day 30) + F1: passive avoidance (step-down test, time to move from …): 6.91 mg/kg-day; NOEL (developmental, drinking water, M, Wistar, generation: F1, F1: cliff avoidance + F1: ear opening + F1: negative geotaxis + F1: surface righting): 0.54 mg/kg-day; LOEL [6]: 0.27 mg/kg-day; NOEL [6]: 0.54 mg/kg-day; LOEL (developmental, drinking water, M, Wistar, generation: F1, F1: eye opening): 0.27 mg/kg-day; LOEL (developmental, drinking water, M, Wistar, generation: F1, F1: open field (defecation)): 0.27 mg/kg-day; NOEL (developmental, drinking water, M, Wistar, generation: F1, F1: open field (defecation) + F1: open field (rearing events, 15 min)): 0.54 mg/kg-day; LOEL (developmental, drinking water, M, Wistar, generation: F1, F1: sexual behavior (% of males ejaculating) + F1: sexual behavior (ejaculation frequency) + F1: sexual behavior (ejaculation latency) + F1…): 3.12 mg/kg-day; NOEL (developmental, drinking water, Wistar, generation: F1, F1: Y-maze (error number, 12 weeks) + F1: Y-maze (error number, 6 weeks) + F1: Y-maze (time to meet learning standard 90%, 6 weeks) + F1: Y-…): 2.78 mg/L serum; LOEL (developmental, drinking water, Wistar, generation: F1, F1: Y-maze (time to meet learning standard 90%, 12 weeks) + F1: Y-maze (total reaction time, 6 weeks)): 2.78 mg/L serum; NOEL (developmental, gavage, F, Wistar, generation: F1, F1: active avoidance (shuttle box, conditioned avoidance response, 1st block) + F1: active avoidance (shuttle box, conditioned avoidance …): 2.26 mg/kg-day
